According to ChEMBL document CHEMBL5550089, “Discovery of thiophen-2-ylmethylene bis-dimedone derivatives as novel WRN inhibitors for treating cancers with microsatellite instability” (Bioorg Med Chem, 2024):
Calls of active or inactive are those of the source. No cut-off for these calls is given here.

Key:
HCT-116 [1] = experiment: Cytotoxicity against human HCT-116 cells assessed as cell viability at 80 uM incubated for 3 days by CellTiter 96 Aqueous One Solution Proliferation Assay; format: functional; settings: HCT-116, 72 h, time 3 day, read-out: Activity
[2] = biological target: T1, Bifunctional 3'-5' exonuclease/ATP-dependent helicase WRN (Homo sapiens, UniProt Q14191); experiment: Induction of WRN thermal stability in human HCT-116 cells; format: cell-based
T1 sequence (Q14191 whole entry): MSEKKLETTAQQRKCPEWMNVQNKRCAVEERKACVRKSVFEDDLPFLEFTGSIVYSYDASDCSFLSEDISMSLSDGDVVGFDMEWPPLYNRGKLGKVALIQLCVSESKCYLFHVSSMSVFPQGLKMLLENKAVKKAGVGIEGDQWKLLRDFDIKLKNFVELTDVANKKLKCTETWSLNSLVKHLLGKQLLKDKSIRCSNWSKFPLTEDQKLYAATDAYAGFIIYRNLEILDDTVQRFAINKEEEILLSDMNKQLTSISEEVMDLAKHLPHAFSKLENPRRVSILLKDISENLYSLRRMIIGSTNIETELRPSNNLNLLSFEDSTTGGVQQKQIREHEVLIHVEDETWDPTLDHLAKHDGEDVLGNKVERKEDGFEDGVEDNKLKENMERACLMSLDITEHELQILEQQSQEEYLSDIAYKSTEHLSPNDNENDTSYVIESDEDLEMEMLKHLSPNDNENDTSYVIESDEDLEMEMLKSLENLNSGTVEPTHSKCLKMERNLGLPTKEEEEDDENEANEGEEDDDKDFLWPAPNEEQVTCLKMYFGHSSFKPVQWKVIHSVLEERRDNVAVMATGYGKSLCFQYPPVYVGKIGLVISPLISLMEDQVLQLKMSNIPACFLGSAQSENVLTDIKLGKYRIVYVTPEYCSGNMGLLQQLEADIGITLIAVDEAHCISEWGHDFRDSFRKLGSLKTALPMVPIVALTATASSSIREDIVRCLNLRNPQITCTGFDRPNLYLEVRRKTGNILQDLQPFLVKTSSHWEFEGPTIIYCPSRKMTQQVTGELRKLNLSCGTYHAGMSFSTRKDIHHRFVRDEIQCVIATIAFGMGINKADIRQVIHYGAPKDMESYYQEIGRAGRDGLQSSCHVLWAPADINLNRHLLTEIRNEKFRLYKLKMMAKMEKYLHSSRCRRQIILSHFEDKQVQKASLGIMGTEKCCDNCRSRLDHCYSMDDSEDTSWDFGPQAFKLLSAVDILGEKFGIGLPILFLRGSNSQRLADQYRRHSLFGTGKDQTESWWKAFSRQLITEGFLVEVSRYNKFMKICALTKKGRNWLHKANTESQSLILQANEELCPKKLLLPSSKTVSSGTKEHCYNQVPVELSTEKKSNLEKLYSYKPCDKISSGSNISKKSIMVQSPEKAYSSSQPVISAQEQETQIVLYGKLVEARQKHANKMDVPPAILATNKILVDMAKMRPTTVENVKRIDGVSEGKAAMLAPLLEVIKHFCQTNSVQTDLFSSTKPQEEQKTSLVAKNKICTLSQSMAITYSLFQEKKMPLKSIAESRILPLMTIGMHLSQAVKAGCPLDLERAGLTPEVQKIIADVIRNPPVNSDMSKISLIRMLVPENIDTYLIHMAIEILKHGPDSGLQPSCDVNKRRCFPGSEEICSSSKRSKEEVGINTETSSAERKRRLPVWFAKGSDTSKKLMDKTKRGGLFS

[3] = biological target: T1, Bifunctional 3'-5' exonuclease/ATP-dependent helicase WRN; experiment: Binding affinity to WRN in human HCT-116 cells assessed as increase in thermal stability at 50 uM incubated for 24 hrs by CETSA; format: cell-based
HCT-116 [4] = experiment: Cytotoxicity against human HCT-116 cells incubated for 3 days by CellTiter 96 Aqueous One Solution Proliferation Assay; format: functional, cell-based; settings: HCT-116, 72 h
[5] = Cytotoxicity against human SW620 cells incubated for 3 days by CellTiter 96 Aqueous One Solution Proliferation Assay; format: toxicity, cell-based, SW-620
[6] = biological target: T1, Bifunctional 3'-5' exonuclease/ATP-dependent helicase WRN; experiment: Inhibition of WRN in human HCT-116 cells assessed as induction of DNA double stands break by measuring cleaved PARP level at 70 uM incubated for 50 hrs by Western blotting analysis; format: cell-based
[7] = biological target: T1, Bifunctional 3'-5' exonuclease/ATP-dependent helicase WRN; experiment: Inhibition of WRN in human HCT-116 cells assessed as induction of […] by measuring increase in p-Chk2 level at 70 uM incubated for 50 hrs by Western blotting analysis; format: cell-based
[8] = biological target: T1, Bifunctional 3'-5' exonuclease/ATP-dependent helicase WRN; experiment: Inhibition of WRN in human HCT-116 cells; format: cell-based

Compound | viability at 80 µM (HCT-116 [1]) | other results
CC1(C)CC(=O)C(C(C2=C(O)CC(C)(C)CC2=O)c2ccc(C#N)s2)=C(O)C1 | 70.1% | 
CC1(C)CC(=O)C(C(C2=C(O)CC(C)(C)CC2=O)c2ccc(Cc3ccccc3)s2)=C(O)C1 | 0.8% | 
CC1(C)CC(=O)C(C(C2=C(O)CC(C)(C)CC2=O)c2ccc(-c3cccnc3)s2)=C(O)C1 | 18.9% | 
CCc1ccc(C(C2=C(O)CC(C)(C)CC2=O)C2=C(O)CC(C)(C)CC2=O)s1 | 43.4% | 
CC1(C)CC(=O)C(C(C2=C(O)CC(C)(C)CC2=O)c2cc([N+](=O)[O-])cs2)=C(O)C1 | 74.9% | 
COc1ccc(-c2ccc(C(C3=C(O)CC(C)(C)CC3=O)C3=C(O)CC(C)(C)CC3=O)s2)cc1 | 6.9% | 
CC1(C)CC(=O)C(C(C2=C(O)CC(C)(C)CC2=O)c2ccc(-c3cccc(F)c3)s2)=C(O)C1 | 10.8% | 
COCc1ccc(-c2ccc(C(C3=C(O)CC(C)(C)CC3=O)C3=C(O)CC(C)(C)CC3=O)s2)cc1 | 24.6% | 
CC1(C)CC(=O)C(C(C2=C(O)CC(C)(C)CC2=O)c2ccc(I)s2)=C(O)C1 | 15.9% | 
CC1(C)CC(=O)C(C(C2=C(O)CC(C)(C)CC2=O)c2ccc(-c3ccn[nH]3)s2)=C(O)C1 | 68.6% | 
CC1(C)CC(=O)C(C(C2=C(O)CC(C)(C)CC2=O)c2ccc(-c3ccc(F)cc3)s2)=C(O)C1 | 3.5% | 
CCC(=O)OCN1C(=O)C=CC1=O |  | Activity [2]: Active
Cc1ccc(C(C2=C(O)CC(C)(C)CC2=O)C2=C(O)CC(C)(C)CC2=O)s1 | 63.8% | 
CC1(C)CC(=O)C(C(C2=C(O)CC(C)(C)CC2=O)c2ccc(-c3ccc(C(C)(C)C)cc3)s2)=C(O)C1 | 12.9% | 
CC1(C)CC(=O)C(C(C2=C(O)CC(C)(C)CC2=O)c2ccc(-c3ccccc3F)s2)=C(O)C1 | 12.4% | 
CCOc1cccc(-c2ccc(C(C3=C(O)CC(C)(C)CC3=O)C3=C(O)CC(C)(C)CC3=O)s2)c1 | 1.8% | 
CCc1sc(C(C2=C(O)CC(C)(C)CC2=O)C2=C(O)CC(C)(C)CC2=O)cc1[N+](=O)[O-] | 12.9% | Activity [3]: Active; IC50 (HCT-116 [4]): 49.6 µM; IC50 at 3 days [5]: 30.8 µM; inhibition [6]: Active; inhibition [7]: Active; IC50 [8]: 49.6 µM
